{"source": "paper PMC6017357", "about": "“In Vitro Inhibitory Effects of Synthetic Cannabinoid EAM-2201 on Cytochrome P450 and UDP-Glucuronosyltransferase Enzyme Activities in Human Liver Microsomes” (Molecules : A Journal of Synthetic Chemistry and Natural …, 2018)", "target": "CYP2C9 (Homo sapiens, UniProt P11712)", "sequence (P11712 whole entry)": "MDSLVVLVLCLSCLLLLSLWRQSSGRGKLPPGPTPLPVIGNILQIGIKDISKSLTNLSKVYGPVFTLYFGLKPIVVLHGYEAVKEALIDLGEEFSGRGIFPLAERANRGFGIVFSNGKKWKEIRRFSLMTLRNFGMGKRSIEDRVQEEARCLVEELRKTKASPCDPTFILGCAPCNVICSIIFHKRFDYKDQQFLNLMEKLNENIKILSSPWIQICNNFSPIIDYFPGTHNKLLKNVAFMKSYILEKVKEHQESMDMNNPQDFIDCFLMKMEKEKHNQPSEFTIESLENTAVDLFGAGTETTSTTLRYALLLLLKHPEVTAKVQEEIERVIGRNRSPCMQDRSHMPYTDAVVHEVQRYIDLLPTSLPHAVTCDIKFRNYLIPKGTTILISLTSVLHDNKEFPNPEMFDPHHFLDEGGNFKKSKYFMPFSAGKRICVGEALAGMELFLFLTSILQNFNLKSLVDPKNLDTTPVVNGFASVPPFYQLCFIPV", "experiment": "CYP2C9-catalyzed diclofenac 4′-hydroxylation in human liver microsomes (IC50 and time-dependent inhibition)", "format": "in vitro ADME", "set-up": "from tissue; host or cells: ultrapooled human liver microsomes", "procedure": "The inhibitory potential (IC50 values) of EAM-2201 on CYP1A2, CYP2A6, CYP2C8, CYP2C9, CYP2C19, CYP2D6 and CYP3A4 were evaluated using ultrapooled human liver microsomes and a cocktail of seven CYP substrates followed by LC-tandem mass spectrometry (LC-MS/MS) as previously described. Each incubation mixture was prepared in a total volume of 100 µL as follows: pooled human liver microsomes (5.2 pmol CYP), 1.0 mM NADPH, 10 mM magnesium chloride, 50 mM potassium phosphate buffer (pH 7.4), various concentrations of EAM-2201 in DMSO (final concentrations of 0.1–50 µM, 0.5% DMSO) and a cocktail of seven CYP probe substrates in 50% acetonitrile (0.5% acetonitrile), including 50 µM phenacetin, 2.5 µM coumarin, 2.0 µM amodiaquine, 10 µM diclofenac, 100 µM [S]-mephenytoin, 5 µM bufuralol and 2.5 µM midazolam in 50% acetonitrile. After a 3-min preincubation at 37 °C, the reactions were initiated by adding NADPH and incubation proceeded for 15 min at 37 °C in a shaking water bath. The reactions were stopped by adding 100 µL of ice-cold methanol containing internal standards (^13C2,^15N-acetaminophen for acetaminophen and N-desethylamodiaquine; d9-1′-hydroxybufuralol for 4′-hydroxydiclofenac, 7-hydroxycoumarin, 4′-hydroxymephenytoin, 1′-hydroxybufuralol and 1′-hydroxy-midazolam). The incubation mixtures were centrifuged at 13,000× g for 4 min at 4 °C and 50 µL of each supernatant was diluted in 50 µL of water. Aliquots (5 µL) of the diluted supernatants were analyzed using LC-MS/MS. All assays were performed in triplicate and the mean values were used in calculations. […] Each reaction was initiated by adding the seven-CYP probe substrate cocktail described above.\nThe time-dependent inhibitory effects of EAM-2201 on CYP2C8, CYP2C9, CYP2C19 and CYP3A4 activities in ultrapooled human liver microsomes were evaluated using time- and concentration-dependent inhibition assays. Ultrapooled human liver microsomes (26.0 pmol CYP) were pre-incubated with various concentrations of EAM-2201 in DMSO (0.5% DMSO) in 50 mM potassium phosphate buffer (pH 7.4) in the presence of NADPH for predetermined time periods: 5–15 min for CYP2C8 activity, 5–20 min for CYP2C9 activity and 15–40 min for CYP2C19 and CYP3A4 activities. […] Aliquots (5 µL) of the diluted supernatants were analyzed using LC-MS/MS.\nThe metabolites formed from CYP substrates were simultaneously quantified using our previously described LC-MS/MS method. […]", "data": [{"molecule": "CCc1ccc(C(=O)c2cn(CCCCCF)c3ccccc23)c2ccccc12", "note": "[EAM-2201, (4-ethyl-1-naphthalenyl)[1-(5-fluoropentyl)-1H-indol-3-yl]-methanone]", "values": [{"measurement": "IC50", "value": 6.7, "unit": "µM"}, {"measurement": "inactivation efficiency (kinact/Ki), CYP2C9", "setting": "human liver microsomes", "value": 257, "unit": "M⁻¹ s⁻¹"}, {"measurement": "kinact", "setting": "human, ultrapooled human liver microsomes, pH 7.4, probe diclofenac (10 µM), 4′-hydroxylation, read-out: kinact, time-dependent inhibition of CYP2C9 diclofenac 4′-hydroxylase (converted)", "value": 0.00077, "unit": "s⁻¹"}, {"measurement": "inhibition of CYP2C9-catalyzed diclofenac 4′-hydroxylation", "setting": "up to 50 µM, without 30-min preincubation, human liver microsomes", "value": "negligibly inhibited"}]}]}
